These results are taken from publication PMC4721142, “Randomized controlled studies on the efficacy of antiarthritic agents in inhibiting cartilage degeneration and pain associated with progression of osteoarthritis in the rat” (Arthritis Research & Therapy, 2016).

Values joined by “and” are separate entries in the source; they are usually repeats but may differ in a detail not shown here. Equal values may be shown once.

The subject of one series is HeLa cells. As to the kind of experiment: HeLa cell viability (CellTiter-Glo). A digest of the protocol:
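HeLa cells with and without drug were tested for viability by CellTiter-Glo luminescence as a toxicity read-out. In the companion NF-κB reporter assay, cells co-transfected with NF-κB firefly and Renilla luciferase plasmids (8:1) were read by Dual-Glo 5 h later, normalized to viable cells and expressed as fold over unstimulated, untreated cells.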
A general note: Cellular ATP, detected with luciferase, serves as a proxy for viable cell number.

In series [1] the test system is MMT/MCLT rat model of OA. As to the kind of experiment: MMT/MCLT trial 1 weight bearing (daily morphine 10 mg/kg, tacrolimus 0.3 or 0.6 mg/kg, fluocinolone 5 or 10 μg/kg, clonidine 100 μg/kg, alendronate 10 μg/kg i.p.; curcumin, withaferin 50 mg/kg p.o.). The format is in vivo. As for the experimental part: Weight bearing (WB; incapacitance) was measured five times per day, once per week, using a Linton incapacitance meter (Stoelting Co., Wood Dale, IL, USA). Rats were acclimated to the meter before study initiation, and, similarly, immediately before WB, the animals were placed in the meter and allowed to acclimate for 2–5 minutes. Each hind paw was placed on a separate force plate so that the force exerted by each side could be averaged over a 5-second interval, and the mean of three readings was taken for each data point. Right paw force was compared with that on the left side for each group to confirm that animals were displaying incapacitance and/or pain behavior. Differences in force (left minus right) and right paw force as a percentage of the total force exerted by both paws were determined and compared between groups.
Following isoflurane anesthesia, the medial collateral ligament was transected just below its attachment to the meniscus in the right knee. The meniscus was cut at its narrowest point away from the ossicles so as not to damage the tibial surface and to ensure that the anterior and posterior meniscus halves were freely movable. […] In trial 2, drugs were administered IA weekly beginning 1 week following surgery. Three weeks postsurgery, animals were humanely killed and their right knees were collected for histopathology. All studies were conducted in accordance with the International Association for the Study of Pain Guidelines and were approved by the Bolder BioPATH IACUC (Boulder, CO, USA) in compliance with regulations before study initiation (IACUC protocol BBP03-006). Those running the studies were blinded to the treatments. See Additional file 1 for further details.
Isoflurane and the right knee area prepared for surgery. A skin incision was made over the medial aspect of the knee and the medial collateral ligament was exposed by blunt dissection and then transected. The medial meniscus was cut through the full thickness to simulate a complete tear and the skin was then closed with suture.
All pharmaceutical agents were prepared and stored as recommended by the supplier. Daily drug preparations were made fresh from stock solutions. […]
In Trial 2 drugs were […]
administered IA weekly beginning one week following surgery. […]
were delivered by gavage and were prepared in 0.3% Methyl Cellulose.
WB was measured five times a day, once a week, using a Linton incapacitance meter (Stoelting Co.) to assess pain behavior. Rats were acclimated to the incapacitance meter prior to study initiation.
Similarly, immediately prior to WB animals were placed in the incapacitance meter and allowed to acclimate for 2-5 minutes. Each hind paw was placed on a separate force plate so that the force exerted by each side could be averaged over a 5 second interval and the mean of three readings taken for each data point. Right paw force was compared to left for each group to confirm that animals were displaying incapacitance / pain behavior. Difference in force (left minus right) and right paw force as a percentage of the total force exerted by both paws were determined and compared between groups. Three weeks after surgery, animals were humanely euthanized and right knees collected for histopathology evaluation.
Figure 2. MMT/MCLT Trial Timeline […]
MMT/MCLT Dosing (once/day)
The study design and animal usage was approved by Bolder BioPATH’s Institutional Animal Care and Use Committee (IACUC) for compliance with regulations prior to study initiation (IACUC […]
Labs. Animals were identified by a distinct mark at the base of the tail delineating group and animal number. After randomization, all cages were labeled with protocol number, group numbers, and animal numbers with appropriate color-coding (see protocol).

Series [2] has as its system MMT/MCLT rat model of OA. As to the kind of experiment: MMT/MCLT trial 2 histopathology (same doses). The format is in vivo. Further details: key to Tibial cartilage degeneration score, 3-zone total: sum of three tibial zone scores (each on 5-point scale); key to Total joint score w/o femur / Total joint score: sum: cartilage degeneration scores + mean osteophyte score. To be noted: for Bone score / Depth ratio any matrix change, mean / Depth ratio any matrix change, zone 2 / Femoral cartilage degeneration score / Tibial cartilage degeneration score, 3-zone total / Tibial cartilage degeneration score, zone 1 / Tibial cartilage degeneration score, zone 2 / Tibial cartilage degeneration score, zone 3 / Tibial cartilage degeneration width, substantial (>50% thickness) / Tibial cartilage degeneration width, total / Tibial osteophyte measure / Tibial osteophyte score / Total joint score / Total joint score w/o femur: mean; for % decrease, bone score / % decrease, depth ratio mean / % decrease, femoral cartilage degeneration score / % decrease, osteophyte measure / % decrease, osteophyte score / % decrease, substantial degeneration width / % decrease, tibial score 3-zone total / % decrease, tibial score zone 1 / % decrease, tibial score zone 3 / % decrease, total degeneration width / % decrease, total joint score / % decrease, total joint score w/o femur / % decrease, depth ratio zone 2 / % decrease, tibial score zone 2: vs saline group. An excerpt: For MMT/MCLT rat knee joints, sections were cut in 200-μm steps; stained with toluidine blue (also with a right and left half per section); and similarly analyzed for cartilage degeneration, proteoglycan loss, collagen damage, and osteophyte formation. Results were averaged across the three sections for an overall semiquantitative score. Regional differences across the tibial plateau were taken into consideration by dividing each section into three zones delineated using an ocular micrometer (outside, middle, and inside). Scores were based on the percentage of area affected within the zone.
Cartilage degeneration in the tibia was scored on a 5-point scale as detailed in the Methods section of Additional file 1. The total extent of degeneration of the tibial plateau was measured (in micrometers) and included an analysis of cell loss, proteoglycan loss, and collagen damage. Significant cartilage degeneration reflecting any degeneration extending through more than 50 % of the cartilage thickness was also measured. Collagen damage across the medial tibial plateau (the most severely affected section of the two halves) was also quantified.
Osteophytes and femoral cartilage degeneration were analyzed as detailed in Additional file 1. Scoring of the osteophytes and categorization into small, medium, and large was performed using an ocular micrometer. The actual osteophyte measurement (tidemark to farthest distance point extending toward the synovium) was also recorded. The femoral cartilage degeneration score and the three-zone sum of the tibial cartilage degeneration scores (mean of three levels) were summed to create a total cartilage degeneration score. The mean osteophyte score for each joint was added to this value to create a total joint score. […]
Histopathology MMT/MCLT Model

Setting [3] is: tacrolimus 30 ng i.a., clonidine 100 μg/kg s.c.
Where [4] appears, read: i.a., tacrolimus 15 ng, curcumin 30 μg.

Take `C=CC[C@@H]1/C=C(\C)C[C@H](C)C[C@H](OC)[C@H]2O[C@@](O)(C(=O)C(=O)N3CCCC[C@H]3C(=O)O[C@H](/C(C)=C/[C@@H]3CC[C@@H](O)[C@H](OC)C3)[C@H](C)[C@@H](O)CC1=O)[C@H](C)C[C@@H]2OC` [Tacrolimus]: the Non-toxic concentrations with HeLa cells lay within 0 to 49.6 M. The “Weight bearing, hours with significant effect” value in the series with MMT/MCLT rat model of OA [1] (day 7, low or only dose) stood at 3 h. Besides, the “Weight bearing, hours with significant effect” value in the series on MMT/MCLT rat model of OA [1] (day 14, tacrolimus 0.6 mg/kg, fluocinolone 0.010 mg/kg) turned out to be 1 h. Besides, the “Weight bearing, hours with significant effect” value in the series with MMT/MCLT rat model of OA [1] (day 21, low or only dose) is listed as 3 h. Also, in the series with MMT/MCLT rat model of OA [2] (i.a., tacrolimus 15 ng), the Bone score turned out to be 2.60; the “Depth ratio any matrix change, mean” value is recorded as 0.25; the “Depth ratio any matrix change, zone 2” value was found to be 0.06; the “Femoral cartilage degeneration score” value was 0.87 and 0.87 ± 0.36. In the series on MMT/MCLT rat model of OA [2] (i.a., tacrolimus 15 ng), the “Tibial cartilage degeneration score, 3-zone total” value is 4.43; the “Tibial cartilage degeneration score, zone 1” value is recorded as 3.37; the “Tibial cartilage degeneration score, zone 2” value turned out to be 1.07; the “Tibial cartilage degeneration score, zone 3” value amounted to 0.00. Further, in the series on MMT/MCLT rat model of OA [2] (i.a., tacrolimus 15 ng), the “Tibial cartilage degeneration width, substantial (>50% thickness)” value is recorded as 536.67 µm; the “Tibial cartilage degeneration width, total” value is 1060.00 µm; the Tibial osteophyte measure is on record as 446.67 µm; the Tibial osteophyte score is listed as 3.30. Also, in the series with MMT/MCLT rat model of OA [2] (i.a., tacrolimus 15 ng), the Total joint score was 8.60 and 8.60 ± 0.63; the “Total joint score w/o femur” value came to 7.73; the “% decrease, bone score” value was determined as 19%; the “% decrease, depth ratio mean” value stood at 23%. In the series on MMT/MCLT rat model of OA [2] (i.a., tacrolimus 15 ng), the “% decrease, femoral cartilage degeneration score” value was found to be 19%; the “% decrease, osteophyte measure” value was 5%; the “% decrease, osteophyte score” value was 7%; the “% decrease, substantial degeneration width” value is given as 17%. In addition, in the series with MMT/MCLT rat model of OA [2] (i.a., tacrolimus 15 ng), the “% decrease, tibial score 3-zone total” value is listed as 21%; the “% decrease, tibial score zone 1” value was determined as 10%; the “% decrease, tibial score zone 3” value amounted to 100%; the “% decrease, total degeneration width” value came out at 12%. Moreover, in the series on MMT/MCLT rat model of OA [2] (i.a., tacrolimus 15 ng), the “% decrease, total joint score” value is 16% and the “% decrease, total joint score w/o femur” value stood at 16%. Moreover, in the series on MMT/MCLT rat model of OA [2] (setting [3]), the Bone score is 2.60; the “Depth ratio any matrix change, mean” value is 0.28; the “Depth ratio any matrix change, zone 2” value stood at 0.08; the “Femoral cartilage degeneration score” value was 0.80 and 0.8 ± 0.19. Besides, in the series with MMT/MCLT rat model of OA [2] (setting [3]), the “Tibial cartilage degeneration score, 3-zone total” value came to 4.73; the “Tibial cartilage degeneration score, zone 1” value is on record as 3.50; the “Tibial cartilage degeneration score, zone 2” value turned out to be 1.20; the “Tibial cartilage degeneration score, zone 3” value stood at 0.03. In addition, in the series with MMT/MCLT rat model of OA [2] (setting [3]), the “Tibial cartilage degeneration width, substantial (>50% thickness)” value is given as 576.67 µm; the “Tibial cartilage degeneration width, total” value is 1090.00 µm; the Tibial osteophyte measure is given as 457.33 µm; the Tibial osteophyte score was determined as 3.37. Further, in the series with MMT/MCLT rat model of OA [2] (setting [3]), the Total joint score was 8.90 and 8.90 ± 0.66; the “Total joint score w/o femur” value is 8.10. Besides, the “% decrease, width of severe collagen degeneration” value in the series with MMT/MCLT rat model of OA [2] (tacrolimus 15 ng i.a.) amounted to 86%. Further, in the series with MMT/MCLT rat model of OA [2] (tacrolimus 30 ng i.a.), the “% decrease, width of severe collagen degeneration” value is listed as 87%; the “% decrease, bone score” value is 19%; the “% decrease, depth ratio mean” value was 15%; the “% decrease, depth ratio zone 2” value stood at 50%. For the same compound, in the series with MMT/MCLT rat model of OA [2] (tacrolimus 30 ng i.a.), the “% decrease, femoral cartilage degeneration score” value was determined as 25%; the “% decrease, osteophyte measure” value is listed as 3%; the “% decrease, osteophyte score” value amounted to 6%; the “% decrease, substantial degeneration width” value came to 11%. Also, in the series on MMT/MCLT rat model of OA [2] (tacrolimus 30 ng i.a.), the “% decrease, tibial score 3-zone total” value is given as 15%; the “% decrease, tibial score zone 1” value was determined as 6%; the “% decrease, tibial score zone 2” value is recorded as 35%; the “% decrease, tibial score zone 3” value was determined as 0%. Further, in the series with MMT/MCLT rat model of OA [2] (tacrolimus 30 ng i.a.), the “% decrease, total degeneration width” value was 10%; the “% decrease, total joint score” value came to 13%; the “% decrease, total joint score w/o femur” value amounted to 12%. In the series with MMT/MCLT rat model of OA [2] (setting [4]), the “% decrease, depth ratio zone 2” value amounted to 59% and the “% decrease, tibial score zone 2” value was 42%.

In the case of `CC(C)(C)CC(=O)OCC(=O)[C@@]12OC(C)(C)O[C@@H]1C[C@H]1[C@@H]3CCC4=CC(=O)C=C[C@]4(C)[C@@]3(F)[C@@H](O)C[C@@]12C` [Triamcinolone hexacetonide], in the series with MMT/MCLT rat model of OA [2] (i.a., tacrolimus 15 ng), the “Femoral cartilage degeneration score” value is 2.03 ± 0.52 and the Total joint score is 11.30 ± 1.21.

In the series on HeLa cells, `CC1=C(CO)C(=O)O[C@@H]([C@@H](C)[C@H]2CC[C@H]3[C@@H]4C[C@H]5O[C@]56[C@@H](O)C=CC(=O)[C@]6(C)[C@H]4CC[C@]23C)C1` [Withaferin A] registered a Non-toxic concentrations of 0 to 17 M. For the same compound, the “Weight bearing, hours with significant effect” value turned out to be 1 h in the series with MMT/MCLT rat model of OA [1] (day 7, low or only dose) and 3 h with MMT/MCLT rat model of OA [1] (day 14, low or only dose).
